Assay results as given in the supplement of paper PMC10307832.

Columns and labels:
Test in all cases: relative viability (nuclei count vs DMSO), 5 days (fraction); higher = more cells survive
[1] = compound: NC(=O)[C@@H](CCC(F)(F)F)N(Cc1ccc(-c2ncon2)cc1F)S(=O)(=O)c1ccc(Cl)cc1 [Avagacestat] + CC(=O)c1c(C)c2cnc(Nc3ccc(N4CCNCC4)cn3)nc2n(C2CCCC2)c1=O [Palbociclib] (partner 0.5 µM)
How it was run: (§1)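 After 5 days of treatment, lung cancer cells in 1536-well plates were fixed and stained in a single step (final 0.05% Triton X-100, 1% formaldehyde, 1 ug/ml Hoechst) and their nuclei counted on 4× images. Treatment had been applied by pin tool the day after seeding as one drug alone or as a fixed anchor-drug dose with five library-drug doses (not always all listed) in √10 steps. Relative viability is the nuclei count of treated wells divided by that of vehicle wells, and values are medians of duplicate plates.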

Avagacestat + Dasatinib = compound: NC(=O)[C@@H](CCC(F)(F)F)N(Cc1ccc(-c2ncon2)cc1F)S(=O)(=O)c1ccc(Cl)cc1 [Avagacestat] + Cc1nc(Nc2ncc(C(=O)Nc3c(C)cccc3Cl)s2)cc(N2CCN(CCO)CC2)n1 [Dasatinib] (partner 0.075 µM)
How it was run: as §1

Avagacestat + Alpelisib = compound: NC(=O)[C@@H](CCC(F)(F)F)N(Cc1ccc(-c2ncon2)cc1F)S(=O)(=O)c1ccc(Cl)cc1 [Avagacestat] + Cc1nc(NC(=O)N2CCC[C@H]2C(N)=O)sc1-c1ccnc(C(C)(C)C(F)(F)F)c1 [Alpelisib] (partner 2 µM)
How it was run: as §1

Avagacestat + Bortezomib = compound: NC(=O)[C@@H](CCC(F)(F)F)N(Cc1ccc(-c2ncon2)cc1F)S(=O)(=O)c1ccc(Cl)cc1 [Avagacestat] + CC(C)C[C@H](NC(=O)[C@H](Cc1ccccc1)NC(=O)c1cnccn1)B(O)O [Bortezomib] (partner 0.002 µM)
How it was run: as §1

Cell Line	relative viability ([1]; first compound 0.08 µM)	relative viability ([1]; first compound 0.253 µM)	relative viability ([1]; first compound 0.8 µM)	relative viability ([1]; first compound 2.53 µM)	relative viability ([1]; first compound 8 µM)	relative viability (Avagacestat + Dasatinib; first compound 0.08 µM)	relative viability (Avagacestat + Dasatinib; first compound 0.253 µM)	relative viability (Avagacestat + Dasatinib; first compound 0.8 µM)	relative viability (Avagacestat + Dasatinib; first compound 2.53 µM)	relative viability (Avagacestat + Dasatinib; first compound 8 µM)	relative viability (Avagacestat + Alpelisib; first compound 0.08 µM)	relative viability (Avagacestat + Alpelisib; first compound 0.253 µM)	relative viability (Avagacestat + Alpelisib; first compound 0.8 µM)	relative viability (Avagacestat + Alpelisib; first compound 8 µM)	relative viability (Avagacestat + Bortezomib; first compound 0.08 µM)	relative viability (Avagacestat + Bortezomib; first compound 0.253 µM)	relative viability (Avagacestat + Bortezomib; first compound 0.8 µM)	relative viability (Avagacestat + Bortezomib; first compound 8 µM)	relative viability (Avagacestat + Alpelisib; first compound 2.53 µM)	relative viability (Avagacestat + Bortezomib; first compound 2.53 µM)
NCI-H661	0.415	0.343	0.428	0.386	0.419	1.05	0.962	1.07	0.891	0.852	0.803	0.664	1.08	0.589	0.919	1.06	0.774	0.693	–	–
201T	0.361	0.307	0.382	0.331	0.352	0.668	0.599	0.565	0.586	0.608	1.04	1.02	1.04	0.887	1.1	1.08	1.2	1.09	0.892	1.11
PC-3 [JPC-3]	0.544	0.574	0.66	0.562	0.6	1.17	1.14	1.16	0.888	0.843	1.04	1.18	1.12	1.03	0.789	1.01	0.924	0.914	1.12	0.902
HCC-366	0.355	0.34	0.465	0.332	0.333	0.842	0.981	0.676	0.544	0.601	0.749	0.679	0.565	0.308	–	1.98	1.29	0.887	0.361	1.22
NCI-H1355	0.441	0.418	0.353	0.351	0.333	0.688	0.754	0.687	0.557	0.62	0.924	0.994	0.74	0.787	1.37	1.38	1.33	1.1	0.759	1.14
RERF-LC-KJ	1.16	1.23	1.2	1.09	1.14	0.974	0.915	0.776	0.748	0.664	0.813	0.823	0.831	0.703	1.17	1.37	1.16	1.02	0.831	1.04
COR-L23	0.283	0.266	0.284	0.276	0.217	0.507	0.471	0.781	0.457	0.359	0.982	1.01	0.788	0.568	1.58	1.3	1.14	0.528	0.743	1.03
HCC-827	0.468	0.478	0.503	0.442	0.465	0.313	0.277	0.226	0.184	0.244	1.04	0.984	1.05	0.972	1.09	1.13	1.13	1.12	0.874	1.05
